Laboratory results taken from patent US20250002455A1, “NEW N-PHENYLPYRROLAMIDE INHIBITORS OF DNA GYRASE AND TOPOISOMERASE IV WITH ANTIBACTERIAL ACTIVITY” (priority 2020, published 2025).
Where two headings read alike, the source gives them in different places.

Columns and labels:
S. aureus ATCC 29213 = assay: Microbroth dilution MIC (CLSI); type: cell-based; settings: Staphylococcus aureus, ATCC29213; S. aureus ATCC 29213; read-out: MIC
Summary of the method: (§1)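 MIC = lowest drug concentration with no visible growth, read in a CLSI broth microdilution format; two-fold serial dilutions prepared in 100% DMSO.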

[1] = tested on: A. baumannii (ATCC 19606); assay: Microbroth dilution MIC (CLSI); type: cell-based; settings: Acinetobacter baumannii, ATCC19606
Summary of the method: as §1

E. coli ATCC 25922 = assay: Microbroth dilution MIC (CLSI); type: cell-based; settings: Escherichia coli, ATCC25922; E. coli ATCC 25922; read-out: MIC
Summary of the method: as §1

[2] = tested on: K. pneumoniae (ATCC 700603); assay: Microbroth dilution MIC (CLSI); type: cell-based; settings: Klebsiella pneumoniae, ATCC700603
Summary of the method: as §1

E. faecium (ATCC 35667) = assay: Microbroth dilution MIC (CLSI); type: cell-based; settings: Enterococcus faecium, ATCC35667
Summary of the method: as §1

P. aeruginosa ATCC 27853 = assay: Microbroth dilution MIC (CLSI); type: cell-based; settings: Pseudomonas aeruginosa, ATCC27853; P. aeruginosa ATCC 27853; read-out: MIC
Summary of the method: as §1

E. coli DNA gyrase = molecular target: T1, E. coli DNA gyrase (Escherichia coli, UniProt P0AES6); assay: biochemical; settings: E. coli DNA gyrase; for remaining activity at 1 µM: 1 μM compound; for IC50: read-out: IC50
T1 construct: purchased Inspiralis
Summary of the method: (§2)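 Triplex-capture format: plasmid bound to a biotinylated oligonucleotide on streptavidin plates after reaction at 37 °C for 30 min. The reaction was stopped with TF buffer (50 mM NaOAc pH 5.0, 50 mM NaCl, 50 mM MgCl2), and captured DNA was stained with SybrGOLD. IC50 values are the mean of three independent measurements.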

[3] = tested on: E. aerogenes (ATCC 13408); assay: Microbroth dilution MIC (CLSI); type: cell-based, Enterobacter aerogenes; settings: Klebsiella aerogenes, ATCC13408
Experimental: The chemical entities described in the present invention were assessed for their antimicrobial activity using a microbroth dilution assay as recommended by the CLSI (Methods for Dilution Antimicrobial Susceptibility Tests for Bacteria That Grow Aerobically, and Methods for Antimicrobial Susceptibility Testing of Anaerobic Bacteria, Clinical and Laboratory Standards Institute, Document M07-A8, and M11-A8, Wayne, PA 19087, USA, 2012.). Compounds were dissolved by using 100% DMSO. Serial two-fold dilutions of each compound were made by using 100% DMSO as the diluent.
A library of Gram-negative and Gram-positive microbes and their drug- and multidrug-resistant variants were employed as test organisms. The MIC (minimum inhibitory concentration) was determined as the lowest concentration of an individual drug that lead to no visible growth.

[4] = molecular target: T2, S. aureus topoisomerase IV (Staphylococcus aureus, UniProt P0C1S7); assay: Topoisomerase IV inhibition assay (Inspiralis, streptavidin-coated plates); type: biochemical; settings: for remaining activity at 10 µM: 10 μM compound; for remaining activity at 0.1 µM: 0.1 μM compound
T2 construct: purchased Inspiralis
T2 sequence (P0C1U9 whole entry): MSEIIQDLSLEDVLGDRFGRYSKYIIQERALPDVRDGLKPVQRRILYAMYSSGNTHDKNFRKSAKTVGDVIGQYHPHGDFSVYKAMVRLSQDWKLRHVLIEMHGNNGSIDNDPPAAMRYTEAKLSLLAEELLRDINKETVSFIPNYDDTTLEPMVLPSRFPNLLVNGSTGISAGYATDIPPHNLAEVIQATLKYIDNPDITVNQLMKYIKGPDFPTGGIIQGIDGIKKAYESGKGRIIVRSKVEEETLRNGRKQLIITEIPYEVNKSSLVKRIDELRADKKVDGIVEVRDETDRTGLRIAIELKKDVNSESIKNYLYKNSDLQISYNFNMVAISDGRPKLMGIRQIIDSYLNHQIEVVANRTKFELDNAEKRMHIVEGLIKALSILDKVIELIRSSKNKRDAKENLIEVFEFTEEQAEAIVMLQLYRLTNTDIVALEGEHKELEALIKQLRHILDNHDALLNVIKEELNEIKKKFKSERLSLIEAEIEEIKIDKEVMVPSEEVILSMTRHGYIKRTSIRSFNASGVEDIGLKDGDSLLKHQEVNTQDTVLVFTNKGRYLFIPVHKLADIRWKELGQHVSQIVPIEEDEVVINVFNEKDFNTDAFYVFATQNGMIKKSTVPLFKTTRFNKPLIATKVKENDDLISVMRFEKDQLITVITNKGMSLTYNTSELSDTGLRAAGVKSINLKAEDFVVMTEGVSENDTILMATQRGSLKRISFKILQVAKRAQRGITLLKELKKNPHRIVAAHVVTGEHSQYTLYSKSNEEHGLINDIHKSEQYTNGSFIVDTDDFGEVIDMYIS
T2 sequence (P0C1S7 whole entry): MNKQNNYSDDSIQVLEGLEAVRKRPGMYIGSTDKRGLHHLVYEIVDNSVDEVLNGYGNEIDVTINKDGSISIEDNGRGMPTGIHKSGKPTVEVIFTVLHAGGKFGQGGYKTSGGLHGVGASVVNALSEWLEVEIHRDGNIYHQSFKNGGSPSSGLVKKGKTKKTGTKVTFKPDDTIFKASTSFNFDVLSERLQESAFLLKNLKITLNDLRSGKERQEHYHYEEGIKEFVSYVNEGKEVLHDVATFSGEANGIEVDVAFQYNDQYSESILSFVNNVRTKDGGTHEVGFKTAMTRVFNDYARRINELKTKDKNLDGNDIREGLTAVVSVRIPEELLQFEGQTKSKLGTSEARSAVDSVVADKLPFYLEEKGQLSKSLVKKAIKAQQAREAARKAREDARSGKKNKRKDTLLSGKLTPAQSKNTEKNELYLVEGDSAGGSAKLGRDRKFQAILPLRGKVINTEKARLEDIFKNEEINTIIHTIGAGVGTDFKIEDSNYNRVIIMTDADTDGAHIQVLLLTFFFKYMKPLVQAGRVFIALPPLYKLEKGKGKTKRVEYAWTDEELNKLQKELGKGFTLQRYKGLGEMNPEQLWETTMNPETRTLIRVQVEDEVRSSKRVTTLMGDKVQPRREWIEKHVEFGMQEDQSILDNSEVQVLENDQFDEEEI
Experimental: Inhibitory activities for compounds of the present invention were determined on E. coli and S. aureus DNA gyrase and topoisomerase IV in an assay from Inspiralis on streptavidin-coated 96-well microtiter plates from Thermo scientific Pierce. […] After washing off the unbound oligonucleotide, the enzyme test was performed. […] Reaction solutions were incubated at 37° C. for 30 min. After that, the TF buffer (50 mM NaOAc with pH 5.0, 50 mM NaCl and 50 mM MgCl2) was added to terminate the enzymatic reaction. After additional incubation for 30 min at rt, during which biotin-oligonucleotide-plasmid triplex was formed, the unbound plasmid was washed off using TF buffer and SybrGOLD in T10 buffer (10 mM Tris HCl with pH 8.0 and 1 mM EDTA) was added. […] Initial screening was done at 100 or 10 nM concentration of inhibitors against E. coli DNA gyrase or 1 μM or 100 nM concentration against S. aureus DNA gyrase and E. coli and S. aureus topo IV. […] GraphPad Prism 6.0 software was used to calculate the IC50 values. The result is given as the average value of three independent measurements. […] Chemoth.

E. coli topoisomerase IV = molecular target: T3, E. coli topoisomerase IV (Escherichia coli, UniProt P20083); assay: biochemical; settings: E. coli topo IV; for remaining activity at 10 µM: 10 μM compound
T3 construct: purchased Inspiralis
T3 sequence (P0AFI2 whole entry): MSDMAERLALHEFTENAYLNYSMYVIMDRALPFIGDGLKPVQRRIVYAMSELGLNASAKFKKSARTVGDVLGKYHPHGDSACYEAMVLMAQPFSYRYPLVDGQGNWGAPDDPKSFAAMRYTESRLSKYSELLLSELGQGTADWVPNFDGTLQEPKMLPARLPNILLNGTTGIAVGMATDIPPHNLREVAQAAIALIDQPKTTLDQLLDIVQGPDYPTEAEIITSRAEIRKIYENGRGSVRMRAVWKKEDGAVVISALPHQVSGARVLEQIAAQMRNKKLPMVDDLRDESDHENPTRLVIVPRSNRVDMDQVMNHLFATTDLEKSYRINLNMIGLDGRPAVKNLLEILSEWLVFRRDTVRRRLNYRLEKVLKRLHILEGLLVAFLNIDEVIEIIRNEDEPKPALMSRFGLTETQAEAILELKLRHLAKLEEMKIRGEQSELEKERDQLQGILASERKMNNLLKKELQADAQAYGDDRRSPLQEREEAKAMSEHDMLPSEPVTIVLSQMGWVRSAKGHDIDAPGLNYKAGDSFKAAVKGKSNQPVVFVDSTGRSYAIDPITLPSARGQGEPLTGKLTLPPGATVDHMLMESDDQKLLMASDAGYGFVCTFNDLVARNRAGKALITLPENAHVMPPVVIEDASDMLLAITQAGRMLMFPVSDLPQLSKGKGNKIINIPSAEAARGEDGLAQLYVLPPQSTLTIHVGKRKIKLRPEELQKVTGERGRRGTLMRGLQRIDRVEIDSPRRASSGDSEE
T3 sequence (P20083 whole entry): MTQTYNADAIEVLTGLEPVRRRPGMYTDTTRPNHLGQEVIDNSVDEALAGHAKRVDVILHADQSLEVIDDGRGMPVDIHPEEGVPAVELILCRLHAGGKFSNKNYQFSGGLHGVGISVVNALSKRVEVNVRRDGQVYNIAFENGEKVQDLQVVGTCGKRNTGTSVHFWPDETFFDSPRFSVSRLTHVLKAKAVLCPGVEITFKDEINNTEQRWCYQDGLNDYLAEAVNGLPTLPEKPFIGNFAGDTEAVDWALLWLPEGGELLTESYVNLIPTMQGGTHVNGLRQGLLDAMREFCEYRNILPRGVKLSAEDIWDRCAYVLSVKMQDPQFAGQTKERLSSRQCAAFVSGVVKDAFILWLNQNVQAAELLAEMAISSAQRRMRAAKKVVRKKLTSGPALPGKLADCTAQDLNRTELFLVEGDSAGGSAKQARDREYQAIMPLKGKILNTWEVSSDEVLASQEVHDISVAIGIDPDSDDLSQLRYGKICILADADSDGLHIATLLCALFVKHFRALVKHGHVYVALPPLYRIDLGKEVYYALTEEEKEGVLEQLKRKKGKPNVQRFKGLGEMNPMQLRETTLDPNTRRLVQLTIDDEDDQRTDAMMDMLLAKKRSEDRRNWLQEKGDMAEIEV
Summary of the method: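 Supercoiling/relaxation read via biotin-oligonucleotide triplex capture on streptavidin plates; reactions 30 min at 37° C, stopped with TF buffer pH 5.0, plasmid stained with SybrGOLD.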

S. aureus DNA gyrase = molecular target: T4, S. aureus DNA gyrase (Staphylococcus aureus, UniProt P0A0K8); assay: biochemical; settings: S. aureus DNA gyrase
T4 construct: purchased Inspiralis
T4 sequence (P20831 whole entry): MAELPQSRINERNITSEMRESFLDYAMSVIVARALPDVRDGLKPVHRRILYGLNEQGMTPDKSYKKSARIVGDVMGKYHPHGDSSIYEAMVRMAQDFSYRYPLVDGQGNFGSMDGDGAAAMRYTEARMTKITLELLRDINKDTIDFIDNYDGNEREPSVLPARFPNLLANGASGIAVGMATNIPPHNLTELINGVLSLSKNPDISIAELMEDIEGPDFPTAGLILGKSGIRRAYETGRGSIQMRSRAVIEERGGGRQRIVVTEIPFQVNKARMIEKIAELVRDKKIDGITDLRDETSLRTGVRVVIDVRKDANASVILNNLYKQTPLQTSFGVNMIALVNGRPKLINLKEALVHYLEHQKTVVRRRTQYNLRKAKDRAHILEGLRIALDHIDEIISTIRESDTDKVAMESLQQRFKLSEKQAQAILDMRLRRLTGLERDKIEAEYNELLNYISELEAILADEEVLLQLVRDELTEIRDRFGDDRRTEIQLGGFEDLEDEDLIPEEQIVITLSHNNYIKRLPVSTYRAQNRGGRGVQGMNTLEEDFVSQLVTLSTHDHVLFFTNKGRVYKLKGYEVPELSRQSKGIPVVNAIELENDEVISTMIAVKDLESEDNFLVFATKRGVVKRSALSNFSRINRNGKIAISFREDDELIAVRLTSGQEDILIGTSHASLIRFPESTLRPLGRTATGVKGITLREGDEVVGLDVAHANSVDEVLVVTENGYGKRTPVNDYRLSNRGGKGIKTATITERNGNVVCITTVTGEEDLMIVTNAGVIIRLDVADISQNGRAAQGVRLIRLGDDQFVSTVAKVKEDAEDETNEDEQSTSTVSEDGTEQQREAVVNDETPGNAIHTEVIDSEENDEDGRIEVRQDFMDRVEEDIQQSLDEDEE
T4 sequence (P0A0K8 whole entry): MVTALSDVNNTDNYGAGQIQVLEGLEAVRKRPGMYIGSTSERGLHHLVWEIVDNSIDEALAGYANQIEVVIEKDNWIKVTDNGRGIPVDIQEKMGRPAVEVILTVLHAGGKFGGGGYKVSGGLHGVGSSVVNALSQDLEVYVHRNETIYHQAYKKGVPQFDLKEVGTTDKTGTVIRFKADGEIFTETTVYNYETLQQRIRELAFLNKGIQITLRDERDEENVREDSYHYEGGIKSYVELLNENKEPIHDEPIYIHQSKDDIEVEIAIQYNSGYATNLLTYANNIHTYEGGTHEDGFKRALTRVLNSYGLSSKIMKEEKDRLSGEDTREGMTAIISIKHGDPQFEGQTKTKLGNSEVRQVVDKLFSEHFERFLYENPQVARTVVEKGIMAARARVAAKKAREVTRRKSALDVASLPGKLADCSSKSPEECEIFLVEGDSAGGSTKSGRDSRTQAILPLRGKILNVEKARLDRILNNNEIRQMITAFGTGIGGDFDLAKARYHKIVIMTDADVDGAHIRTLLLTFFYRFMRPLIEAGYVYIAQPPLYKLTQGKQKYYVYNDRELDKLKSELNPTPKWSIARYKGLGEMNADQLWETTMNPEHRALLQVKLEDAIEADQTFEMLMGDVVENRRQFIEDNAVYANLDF
Summary of the method: as §2

K. pneumoniae ATCC 10031 = assay: Microbroth dilution MIC (CLSI); type: cell-based; settings: Klebsiella pneumoniae, ATCC10031; K. pneumoniae ATCC 10031; read-out: MIC
Summary of the method: as §1

E. faecium ATCC 700221 = assay: Microbroth dilution MIC (CLSI); type: cell-based; settings: Enterococcus faecium, ATCC700221; E. faecium ATCC 700221; read-out: MIC
Summary of the method: as §1

E. faecalis ATCC 29212 = assay: Microbroth dilution MIC (CLSI); type: cell-based; settings: Enterococcus faecalis, ATCC29212; E. faecalis ATCC 29212; read-out: MIC
Summary of the method: as §1

[5] = tested on: S. aureus ATCC 700699 (VISA); assay: Microbroth dilution MIC (CLSI); type: cell-based; settings: Staphylococcus aureus; S. aureus ATCC 700699 (VISA); read-out: MIC
Summary of the method: as §1

[6] = tested on: S. aureus ATCC 43300 (MRSA); assay: Microbroth dilution MIC (CLSI); type: cell-based; settings: Staphylococcus aureus; S. aureus ATCC 43300 (MRSA); read-out: MIC
Summary of the method: as §1

[7] = tested on: E. spp. cloacae ATCC 13047; assay: Microbroth dilution MIC (CLSI); type: cell-based; settings: Enterobacter cloacae, ATCC13047; E. spp. cloacae ATCC 13047; read-out: MIC
Summary of the method: as §1

A. baumannii ATCC 17978 = assay: Microbroth dilution MIC (CLSI); type: cell-based; settings: Acinetobacter baumannii, ATCC17978; A. baumannii ATCC 17978; read-out: MIC
Summary of the method: as §1

[8] = A. baumannii (ATCC 19606), read-out: MIC
[9] = K. pneumoniae (ATCC 700603), read-out: MIC
[10] = E. faecium (ATCC 35667), read-out: MIC
[11] = read-out: RA (residual activity of the enzyme)
[12] = E. aerogenes (ATCC 13408), read-out: MIC
[13] = S. aureus topo IV, read-out: RA (residual activity of the enzyme)
[14] = 0.1 μM compound, read-out: RA (residual activity of the enzyme)

SMILES	MIC (S. aureus ATCC 29213) [µg/mL]	MIC [1, 8] [µg/mL]	MIC (E. coli ATCC 25922) [µg/mL]	MIC [2, 9] [µg/mL]	MIC (E. faecium (ATCC 35667); [10]) [µg/mL]	MIC (P. aeruginosa ATCC 27853) [µg/mL]	remaining activity at 1 µM (E. coli DNA gyrase; [11]) [%]	MIC [3, 12] [µg/mL]	IC50 (E. coli DNA gyrase) [nM]	other results
Cc1nnc(-c2ccc(NC(=O)c3[nH]c(C)c(Cl)c3Cl)c(OC(C)C)c2)o1 [Example 21, 3,4-Dichloro-N-(2-isopropoxy-4-(5-methyl-1,3,4-oxadiazol-2-yl)phenyl)-5-methyl-1H-pyrrole-2-carboxamide]	≥ 64	≥ 64	≥ 64	≥ 64	≥ 64	≥ 64	95	≥ 64	–	–
Cl.O=C(O)CNC(=O)c1ccc(NC(=O)c2cc(Br)c(Br)[nH]2)c(N2CCNCC2)c1 [Example 39, 4-(5-((Carboxymethyl)carbamoyl)-2-(4,5-dibromo-1H-pyrrole-2-carboxamido)phenyl)piperazin-1-ium chloride]	≥ 64	≥ 64	≥ 64	≥ 64	≥ 64	≥ 64	–	≥ 64	841	remaining activity at 10 µM [4, 13]: 73%; remaining activity at 10 µM (E. coli topoisomerase IV; [11]): 97%
Cl.N[C@@H]1CCN(c2cc(C(=O)NCC(=O)O)ccc2NC(=O)c2cc(Br)c(Br)[nH]2)C1 [Example 37, (R)-1-(5-((Carboxymethyl)carbamoyl)-2-(4,5-dibromo-1H-pyrrole-2-carboxamido)phenyl)pyrrolidin-3-aminium chloride]	≥ 64	≥ 64	≥ 64	≥ 64	≥ 64	≥ 64	–	≥ 64	2380	remaining activity at 10 µM (S. aureus DNA gyrase; 10 μM compound, read-out: RA (residual activity of the enzyme)): 78%
Cc1[nH]c(C(=O)Nc2ccc(-c3noc(=O)[nH]3)cc2N2CCOCC2)c(Cl)c1Cl [Example 8, 3,4-Dichloro-5-methyl-N-(2-morpholino-4-(5-oxo-4,5-dihydro-1,2,4-oxadiazol-3-yl)phenyl)-1H-pyrrole-2-carboxamide]	–	–	–	–	–	–	–	–	13	remaining activity at 0.1 µM [4, 13]: 51%; remaining activity at 1 µM ([4]; S. aureus topo IV, 1 μM compound, read-out: RA (residual activity of the enzyme)): 10%
Cc1[nH]c(C(=O)Nc2ccc(-n3nn[nH]c3=O)cc2N2CCC(N)CC2)c(Cl)c1Cl.Cl [Example 23, 1-(2-(3,4-Dichloro-5-methyl-1H-pyrrole-2-carboxamido)-5-(5-oxo-4,5-dihydro-1H-tetrazol-1-yl)phenyl)piperidin-4-aminium chloride]	≥ 32	–	≥ 32	–	–	≥ 32	–	–	3.96	MIC (K. pneumoniae ATCC 10031): ≥ 32 µg/mL; MIC (E. faecium ATCC 700221): ≥ 32 µg/mL; MIC (E. faecalis ATCC 29212): ≥ 32 µg/mL; MIC [5]: ≥ 32 µg/mL; MIC [6]: ≥ 32 µg/mL; MIC [7]: ≥ 32 µg/mL; MIC (A. baumannii ATCC 17978): ≥ 32 µg/mL; IC50 (S. aureus DNA gyrase; read-out: IC50): 216 nM; IC50 [4]: 6200 nM; IC50 (E. coli topoisomerase IV; read-out: IC50): 11500 nM
Cc1[nH]c(C(=O)Nc2ccc(-c3n[nH]c(=O)o3)cc2N2CC[C@H](N)C2)c(Cl)c1Cl.Cl [Example 20, (S)-1-(2-(3,4-Dichloro-5-methyl-1H-pyrrole-2-carboxamido)-5-(5-oxo-4,5-dihydro-1,3,4-oxadiazol-2-yl)phenyl)pyrrolidin-3-aminium chloride]	2	–	8	–	–	32	–	–	2.8	MIC (K. pneumoniae ATCC 10031): 0.064 µg/mL; MIC (E. faecalis ATCC 29212): 1 µg/mL; MIC [6]: 2 µg/mL; MIC [7]: 32 µg/mL; MIC (A. baumannii ATCC 17978): 8 µg/mL; remaining activity at 0.01 µM (S. aureus DNA gyrase; 0.01 μM compound, read-out: RA (residual activity of the enzyme)): 90%; remaining activity at 0.1 µM (S. aureus DNA gyrase; [14]): 39%; remaining activity at 0.1 µM [4, 13]: 99%; remaining activity at 1 µM (E. coli topoisomerase IV; 1 μM compound, read-out: RA (residual activity of the enzyme)): 105%
Cc1[nH]c(C(=O)Nc2ccc(C(=O)O)cc2N2CCNCC2)c(Cl)c1Cl [Example 12, 4-(5-Carboxy-2-(3,4-dichloro-5-methyl-1H-pyrrole-2-carboxamido)phenyl)piperazin-1-ium chloride]	≥ 64	–	≥ 64	–	–	≥ 64	67	–	–	MIC [1]: ≥ 64 µg/mL; MIC [2]: ≥ 64 µg/mL; MIC (E. faecium (ATCC 35667)): ≥ 64 µg/mL; remaining activity at 10 µM [4, 13]: -17%; MIC [3]: ≥ 64 µg/mL; remaining activity at 10 µM (E. coli topoisomerase IV; [11]): -18%
Cc1[nH]c(C(=O)Nc2ccc(C(=O)O)cc2N2CCC[C@H](N)C2)c(Cl)c1Cl.Cl [Example 14, (S)-1-(5-carboxy-2-(3,4-dichloro-5-methyl-1H-pyrrole-2-carboxamido)phenyl)piperidin-3-aminium chloride]	≥ 64	≥ 64	≥ 64	≥ 64	≥ 64	≥ 64	-2	≥ 64	–	remaining activity at 0.1 µM (E. coli DNA gyrase; [14]): 52%
